According to patent publication US20240059677A1, “SUBSTITUTED PYRIMIDINE DERIVATIVES AS NICOTINIC ACETYLCHOLINESTERASE RECEPTOR ALPHA 6 MODULATOR” (priority 2020, published 2024):

molecular target: T1, human nAChRα6-α3 chimera, in addition to β2 and β3^V273S subunits (Homo sapiens, UniProt P32297+Q15825); assay: fluorescence-based calcium assay: inhibition of nicotine stimulated nAChRα6 activity (FLIPR); conditions: HEK cell line stably expressing the receptor; 10 min pre-incubation, nicotine EC80; 10-point curve, duplicate wells; read-out: IC50
T1 construct: expressed in transfected cells
In short: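 HEK cells stably expressing the human α6-α3 chimera with β2 and β3^V273S were loaded with calcium dye at 30° C. Compounds were pre-incubated for 10 min before nicotine at EC80, and the fluorescence change was read on a FLIPR. Ten-point half-log concentration-response, duplicate wells.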

T1 sequence (Q05901 25-458 V273S): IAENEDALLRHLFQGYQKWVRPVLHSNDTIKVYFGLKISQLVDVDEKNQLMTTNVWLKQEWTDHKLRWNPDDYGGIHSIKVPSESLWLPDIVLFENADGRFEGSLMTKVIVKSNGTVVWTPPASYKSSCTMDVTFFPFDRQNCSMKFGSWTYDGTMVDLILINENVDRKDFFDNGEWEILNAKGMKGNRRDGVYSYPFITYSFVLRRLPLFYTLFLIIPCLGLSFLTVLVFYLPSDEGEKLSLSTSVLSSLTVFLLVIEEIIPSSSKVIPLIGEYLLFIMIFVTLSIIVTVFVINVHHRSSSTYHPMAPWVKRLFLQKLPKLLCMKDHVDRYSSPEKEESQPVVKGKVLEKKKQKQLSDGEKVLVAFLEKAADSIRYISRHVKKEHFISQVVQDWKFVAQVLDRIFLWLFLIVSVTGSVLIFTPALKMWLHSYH
T1 sequence (P17787 26-502, stated change not applied, further chain): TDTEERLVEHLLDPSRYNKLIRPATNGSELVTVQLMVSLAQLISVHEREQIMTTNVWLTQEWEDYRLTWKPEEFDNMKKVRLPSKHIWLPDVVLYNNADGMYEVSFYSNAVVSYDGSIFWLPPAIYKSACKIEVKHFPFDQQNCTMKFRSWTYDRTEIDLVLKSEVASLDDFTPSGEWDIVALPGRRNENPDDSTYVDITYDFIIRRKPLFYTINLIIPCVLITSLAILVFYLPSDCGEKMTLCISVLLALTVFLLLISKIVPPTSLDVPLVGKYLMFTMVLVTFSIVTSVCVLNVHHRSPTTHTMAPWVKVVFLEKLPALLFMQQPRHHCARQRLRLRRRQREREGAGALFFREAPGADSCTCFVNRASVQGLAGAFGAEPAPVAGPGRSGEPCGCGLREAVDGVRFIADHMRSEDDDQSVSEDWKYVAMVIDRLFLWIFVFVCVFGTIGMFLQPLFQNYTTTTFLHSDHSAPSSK
T1 sequence (Q15825+P32297 fused with the stated changes): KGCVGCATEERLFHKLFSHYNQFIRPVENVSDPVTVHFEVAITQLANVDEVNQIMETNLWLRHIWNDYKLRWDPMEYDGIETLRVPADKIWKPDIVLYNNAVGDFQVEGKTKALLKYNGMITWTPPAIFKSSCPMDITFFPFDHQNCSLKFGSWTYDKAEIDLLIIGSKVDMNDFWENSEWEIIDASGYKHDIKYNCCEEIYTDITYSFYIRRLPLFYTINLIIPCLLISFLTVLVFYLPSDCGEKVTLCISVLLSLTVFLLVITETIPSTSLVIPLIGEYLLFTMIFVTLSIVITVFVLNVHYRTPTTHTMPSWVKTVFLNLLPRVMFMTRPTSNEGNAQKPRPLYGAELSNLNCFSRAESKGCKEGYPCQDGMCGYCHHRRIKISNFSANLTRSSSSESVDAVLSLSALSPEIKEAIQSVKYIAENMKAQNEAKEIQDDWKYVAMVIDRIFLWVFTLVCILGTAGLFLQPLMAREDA

| Structure (SMILES) | IC50 |
| --- | --- |
| Cc1nc(NCC2CCCCN2)ncc1-c1ccc(C(F)(F)F)cc1F (stereo not drawn) [Example 104, 5-(2-fluoro-4-(trifluoromethyl)phenyl)-4-methyl-N-(2-piperidinylmethyl) pyrimidin-2-amine] | 0.027 µM |
| CCN1CCC[C@H]1CNc1ncc(-c2ccc(C(F)(F)F)cc2F)c(C)n1 [Example 105, (S)—N-((1-ethylpyrrolidin-2-yl)methyl)-5-(2-fluoro-4-(trifluoromethyl)phenyl)-4-methyl-pyrimidin-2-amine] | 0.05 µM |
| Cc1nc(NCCC2CCCN2C)ncc1-c1ccc(C(F)(F)F)cc1F (stereo not drawn) [Example 106, 5-(2-fluoro-4-(trifluoromethyl)phenyl)-4-methyl-N-(2-(1-methylpyrrolidin-2-yl)ethyl)pyrimidin-2-amine] | 0.054 µM |
| Cc1nc(NCC[C@H]2CCCN2C)ncc1-c1ccc(C(F)(F)F)cc1F [Example 106a, (R)-5-(2-fluoro-4-(trifluoromethyl)phenyl)-4-methyl-N-(2-(1-methylpyrrolidin-2-yl)ethyl)pyrimidin-2-amine] | 0.105 µM |
| Cc1nc(NCC[C@@H]2CCCN2C)ncc1-c1ccc(C(F)(F)F)cc1F [Example 106b, (S)-5-(2-fluoro-4-(trifluoromethyl)phenyl)-4-methyl-N-(2-(1-methylpyrrolidin-2-yl)ethyl)pyrimidin-2-amine] | 0.138 µM |
| Cc1nc(NCC2CCCN(C)C2)ncc1-c1ccc(C(F)(F)F)cc1F (stereo not drawn) [Example 107, 5-(2-fluoro-4-(trifluoromethyl)phenyl)-4-methyl-N-((1-methyl-3-piperidinyl)methyl)pyrimidin-2-amine] | 0.154 µM |
| Cc1nc(NCC2CN(C)CCO2)ncc1-c1ccc(C(F)(F)F)cc1F (stereo not drawn) [Example 108, 5-(2-fluoro-4-(trifluoromethyl)phenyl)-4-methyl-N-((4-methylmorpholin-2-yl)methyl)pyrimidin-2-amine] | 0.043 µM |
| Cc1nc(N[C@H]2CCCC[C@@H]2N(C)C)ncc1-c1ccc(C(F)(F)F)cc1F [Example 109, (1S,2S)—N^1-(5-(2-fluoro-4-(trifluoromethyl)phenyl)-4-methyl-pyrimidin-2-yl)-N^2,N^2-dimethyl-cyclohexane-1,2-diamine] | 0.096 µM |
| Cc1nc(N[C@@H]2CCNC2)ncc1-c1ccc(C(F)(F)F)cc1F [Example 110, (R)-5-(2-fluoro-4-(trifluoromethyl)phenyl)-4-methyl-N-(pyrrolidin-3-yl)pyrimidin-2-amine] | 0.054 µM |
| Cc1nc(N[C@H]2CC[C@H](N)C2)ncc1-c1ccc(C(F)(F)F)cc1F [Example 111, (1S,3S)—N^3-(5-(2-fluoro-4-(trifluoromethyl)phenyl)-4-methyl-pyrimidin-2-yl)cyclopentane-1,3-diamine] | 0.09 µM |
| Cc1nc(NC[C@@H]2CCCNC2)ncc1-c1ccc(C(F)(F)F)cc1F [Example 113, (R)-5-(2-fluoro-4-(trifluoromethyl)phenyl)-4-methyl-N-((3-piperidinyl)methyl)pyrimidin-2-amine] | 0.045 µM |
| Cc1nc(N[C@@H]2CNC[C@H]2O)ncc1-c1ccc(C(F)(F)F)cc1F [Example 115, (3R,4R)-4-((5-(2-fluoro-4-(trifluoromethyl)phenyl)-4-methyl-pyrimidin-2-yl)amino)pyrrolidin-3-ol] | 0.121 µM |
| O=C(O)/C=C/C(=O)O.[2H]C([2H])([2H])N1CCC[C@@H]1CNc1ncc(-c2ccc(C(F)(F)F)cc2F)c(C)n1 [Example 117, (R)-5-(2-fluoro-4-(trifluoromethyl)phenyl)-4-methyl-N-((1-(trideuteriomethyl)pyrrolidin-2-yl)methyl)pyrimidin-2-amine] | 0.025 µM |
| O=C(O)/C=C/C(=O)O.[2H]C([2H])([2H])N1CCC[C@H]1CNc1ncc(-c2ccc(C(F)(F)F)cc2F)c(C)n1 [Example 118, (S)-5-(2-fluoro-4-(trifluoromethyl)phenyl)-4-methyl-N-((1-(trideuteriomethyl)pyrrolidin-2-yl)methyl)pyrimidin-2-amine] | 0.075 µM |
| Cc1nc(N[C@H]2CN3CCC2CC3)ncc1-c1ccc(C(F)(F)F)cc1F [Example 119, (R)—N-(5-(2-fluoro-4-(trifluoromethyl)phenyl)-4-methyl-pyrimidin-2-yl) quinuclidin-3-amine] | 0.155 µM |
| Cc1nc(N[C@@H]2CN3CCC2CC3)ncc1-c1ccc(C(F)(F)F)cc1F [Example 120, (S)—N-(5-(2-fluoro-4-(trifluoromethyl)phenyl)-4-methyl-pyrimidin-2-yl) quinuclidin-3-amine] | 0.179 µM |
| Cc1nc(N[C@H]2C[C@H]3CC[C@@H](C2)N3)ncc1-c1ccc(C(F)(F)F)cc1F [Example 121, (1R,3s,5S)—N-(5-(2-fluoro-4-(trifluoromethyl)phenyl)-4-methyl-pyrimidin-2-yl)-8-azabicyclo[3.2.1]octan-3-amine] | 0.191 µM |
| Cc1nc(NC2CC3(CNC3)C2)ncc1-c1ccc(C(F)(F)F)cc1F [Example 122, N-(5-(2-fluoro-4-(trifluoromethyl)phenyl)-4-methyl-pyrimidin-2-yl)-2-azaspiro[3.3]heptan-6-amine] | 0.039 µM |
| Cc1nc(NC2CC23CCNCC3)ncc1-c1ccc(C(F)(F)F)cc1F (stereo not drawn) [Example 123, N-(5-(2-fluoro-4-(trifluoromethyl)phenyl)-4-methyl-pyrimidin-2-yl)-6-azaspiro[2.5]octan-1-amine] | 0.15 µM |
| Cc1nc(N[C@H]2CCNC[C@@H]2F)ncc1-c1ccc(C(F)(F)F)cc1F [Example 124, 5-(2-fluoro-4-(trifluoromethyl)phenyl)-N-((3S,4S)-3-fluoropiperidin-4-yl)-4-methyl-pyrimidin-2-amine] | 0.903 µM |
| Cc1nc(N[C@H]2CCC[C@H](N)C2)ncc1-c1ccc(C(F)(F)F)cc1F [Example 125, (1S,3S)—N^1-(5-(2-fluoro-4-(trifluoromethyl)phenyl)-4-methyl-pyrimidin-2-yl)cyclohexane-1,3-diamine] | 0.223 µM |
| Cc1nc(NC2CC(C)(C)NC(C)(C)C2)ncc1-c1ccc(C(F)(F)F)cc1F [Example 126, 5-(2-fluoro-4-(trifluoromethyl)phenyl)-4-methyl-N-(2,2,6,6-tetramethylpiperidin-4-yl)pyrimidin-2-amine] | 0.259 µM |
| Cc1nc(NC[C@H]2CCCNC2)ncc1-c1ccc(C(F)(F)F)cc1F [Example 127, (S)-5-(2-fluoro-4-(trifluoromethyl)phenyl)-4-methyl-N-(piperidin-3-ylmethyl)pyrimidin-2-amine] | 0.119 µM |
| Cc1nc(NC[C@]2(C)CCCN2)ncc1-c1ccc(C(F)(F)F)cc1F [Example 134, (S)-5-(2-fluoro-4-(trifluoromethyl)phenyl)-4-methyl-N-((2-methyl-pyrrolidin-2-yl)methyl)pyrimidin-2-amine] | 0.101 µM |
| Cc1nc(NC[C@@]2(C)CCCN2)ncc1-c1ccc(C(F)(F)F)cc1F [Example 135, (R)-5-(2-fluoro-4-(trifluoromethyl)phenyl)-4-methyl-N-((2-methyl-pyrrolidin-2-yl)methyl)pyrimidin-2-amine] | 0.07 µM |
| Cc1nc(NC(=O)[C@H]2CCCN2C)ncc1-c1ccc(C(F)(F)F)cc1F [Example 139, (R)—N-(5-(2-fluoro-4-(trifluoromethyl)phenyl)-4-methyl-pyrimidin-2-yl)-1-methylpyrrolidine-2-carboxamide] | 0.086 µM |
| Cc1nc(NC(=O)[C@@H]2CCCN2C)ncc1-c1ccc(C(F)(F)F)cc1F [Example 140, (S)—N-(5-(2-fluoro-4-(trifluoromethyl)phenyl)-4-methyl-pyrimidin-2-yl)-1-methylpyrrolidine-2-carboxamide] | 0.079 µM |

same assay, conditions: IC50 (μM), HEK cell line stably expressing the receptor; 10 min pre-incubation, nicotine EC80; 10-point curve, duplicate wells

| Structure (SMILES) | IC50 |
| --- | --- |
| Cc1nc(NC[C@H]2CCCCN2)ncc1-c1ccc(C(F)(F)F)cc1F [Example 104a, (R)-5-(2-fluoro-4-(trifluoromethyl)phenyl)-4-methyl-N-(2-piperidinylmethyl)pyrimidin-2-amine] | 0.104 µM |
| Cc1nc(NC[C@@H]2CCCCN2)ncc1-c1ccc(C(F)(F)F)cc1F [Example 104b, (S)-5-(2-fluoro-4-(trifluoromethyl)phenyl)-4-methyl-N-(2-piperidinylmethyl)pyrimidin-2-amine] | 0.045 µM |
| Cc1nc(N[C@H]2CCCNC2)ncc1-c1ccc(C(F)(F)F)cc1F [Example 116, (S)-5-(2-fluoro-4-(trifluoromethyl)phenyl)-4-methyl-N-(3-piperidinyl) pyrimidin-2-amine] | 0.127 µM |
| Cc1nc(N[C@@H]2CCCNC2)ncc1-c1ccc(C(F)(F)F)cc1F [Example 128, (R)-5-(2-fluoro-4-(trifluoromethyl)phenyl)-4-methyl-N-(piperidin-3-yl) pyrimidin-2-amine] | 0.18 µM |
| Cc1nc(NC[C@]2(C)CCCN2C)ncc1-c1ccc(C(F)(F)F)cc1F [Example 136, (S)—N-((1,2-dimethylpyrrolidin-2-yl)methyl)-5-(2-fluoro-4-(trifluoromethyl)phenyl)-4-methyl-pyrimidin-2-amine] | 0.096 µM |
| Cc1nc(NC[C@@]2(C)CCCN2C)ncc1-c1ccc(C(F)(F)F)cc1F [Example 137, (R)—N-((1,2-dimethylpyrrolidin-2-yl)methyl)-5-(2-fluoro-4-(trifluoromethyl)phenyl)-4-methyl-pyrimidin-2-amine] | 0.11 µM |
